From the NIST ThermoML archive (doi:10.1016/j.jct.2010.01.009)
Several values for one entry are separate records, joined by “and”; a condition that tells them apart may be missing. Equal values may be shown once. Numbers after ± are expanded uncertainties.

Settings: Crystal, Calculated from knudsen effusion weight loss

SMILES | vapor or sublimation pressure (283.11 K) | vapor or sublimation pressure (285.13 K) | vapor or sublimation pressure (287.12 K) | vapor or sublimation pressure (289.13 K) | vapor or sublimation pressure (291.14 K) | vapor or sublimation pressure (293.13 K) | vapor or sublimation pressure (295.18 K) | vapor or sublimation pressure (297.15 K) | vapor or sublimation pressure (299.16 K) | vapor or sublimation pressure (271.14 K) | vapor or sublimation pressure (273.15 K) | vapor or sublimation pressure (275.17 K) | vapor or sublimation pressure (277.06 K) | vapor or sublimation pressure (279.15 K) | vapor or sublimation pressure (281.11 K) | vapor or sublimation pressure (283.19 K) | vapor or sublimation pressure (285.24 K) | vapor or sublimation pressure (287.13 K)
Cc1ccc(-n2cccc2)cc1 [1-(4-methylphenyl)-1H-pyrrole] | 0.00014 ± 7e-06 kPa and 0.000137 ± 7e-06 kPa | 0.000168 ± 8e-06 kPa and 0.000169 ± 8e-06 kPa and 0.000174 ± 9e-06 kPa | 0.00023 ± 1.2e-05 kPa and 0.000224 ± 1.1e-05 kPa and 0.00022 ± 1.1e-05 kPa | 0.000278 ± 1.4e-05 kPa and 0.000282 ± 1.4e-05 kPa and 0.000286 ± 1.4e-05 kPa | 0.000362 ± 1.8e-05 kPa and 0.000355 ± 1.8e-05 kPa | 0.000468 ± 2.3e-05 kPa and 0.000459 ± 2.3e-05 kPa and 0.000451 ± 2.3e-05 kPa | 0.000579 ± 2.9e-05 kPa and 0.000571 ± 2.9e-05 kPa and 0.000558 ± 2.8e-05 kPa | 0.000732 ± 3.7e-05 kPa and 0.000734 ± 3.7e-05 kPa | 0.000948 ± 4.7e-05 kPa and 0.000927 ± 4.6e-05 kPa and 0.000925 ± 4.6e-05 kPa |  |  |  |  |  |  |  |  | 
c1ccc(-n2cccc2)cc1 [1-phenylpyrrole] |  |  |  |  |  |  |  |  |  | 0.000151 ± 8e-06 kPa and 0.000147 ± 7e-06 kPa and 0.000143 ± 7e-06 kPa | 0.000191 ± 1e-05 kPa and 0.00019 ± 1e-05 kPa and 0.000185 ± 9e-06 kPa | 0.000255 ± 1.3e-05 kPa and 0.000247 ± 1.2e-05 kPa and 0.000241 ± 1.2e-05 kPa | 0.000336 ± 1.7e-05 kPa and 0.000311 ± 1.6e-05 kPa and 0.00033 ± 1.7e-05 kPa | 0.000426 ± 2.1e-05 kPa and 0.000414 ± 2.1e-05 kPa and 0.000397 ± 2e-05 kPa | 0.000537 ± 2.7e-05 kPa and 0.000525 ± 2.6e-05 kPa | 0.000682 ± 3.4e-05 kPa and 0.000678 ± 3.4e-05 kPa and 0.000651 ± 3.3e-05 kPa | 0.000905 ± 4.5e-05 kPa and 0.000887 ± 4.4e-05 kPa | 0.001123 ± 0.00012 kPa and 0.001111 ± 0.00011 kPa and 0.00106 ± 0.00011 kPa
